Data from ChEMBL document CHEMBL6074720, “Dihydrofolate reductase inhibitory potential of 1H-indole-based-meldrum linked 1H-1,2,3-triazoles as new anticancer derivatives: In-vitro and in-silico studies” (Eur J Med Chem, 2025).
Active and inactive are the calls of the source. No cut-off for these calls is given here.

How the values were obtained:
[1] = target: T1, Dihydrofolate reductase (Homo sapiens) (UniProt P00374); assay: Inhibition of DHFR (unknown origin) using dihydro folic acid as substrate at 0.5 mM preincubated with compound for 5 mins followed by substrate addition and measured after 30 mins in presence of NADPH by absorbance based assay relative to control; conditions: time 35.0 min
T1 sequence (whole entry): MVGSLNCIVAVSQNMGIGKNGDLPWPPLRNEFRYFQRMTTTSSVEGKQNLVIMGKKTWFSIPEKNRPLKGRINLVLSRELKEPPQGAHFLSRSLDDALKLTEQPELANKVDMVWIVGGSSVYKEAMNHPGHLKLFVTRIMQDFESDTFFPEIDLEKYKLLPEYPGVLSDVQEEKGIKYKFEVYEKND

[2] = target: T1, Dihydrofolate reductase (Homo sapiens); assay: (§1) Inhibition of DHFR (unknown origin) using dihydro folic acid as substrate preincubated with compound for 5 mins followed by substrate addition and measured after 30 mins in presence of NADPH by absorbance based assay; conditions: time 35.0 min
Dihydrofolate reductase = target: T2, Dihydrofolate reductase (Homo sapiens, UniProt P00374); assay: as §1
T2 sequence (P00374 whole entry): T1 sequence (whole entry)

SMILES: CC1(C)OC(=O)C(Cc2cn(Cc3ccc(C#N)cc3)c3ccccc23)C(=O)O1
- inhibition [1]: 25.5%
- inhibition [2]: inactive

SMILES: CC1(C)OC(=O)C(Cc2cn(-c3ccc(Br)cc3)nn2)(Cc2c[nH]c3ccccc23)C(=O)O1
- inhibition [1]: 91.6%
- IC50 (Dihydrofolate reductase): 9.57 µM

SMILES: COc1ccc(OC(=O)C(Cc2cn(-c3ccc(F)cc3)nn2)Cc2cn(CCC#N)c3ccccc23)cc1 (configuration not stated)
- inhibition [1]: 91.3%
- IC50 (Dihydrofolate reductase): 12.8 µM

SMILES: CC1(C)OC(=O)C(Cc2cn(-c3ccc(F)cc3)nn2)(Cc2c[nH]c3ccccc23)C(=O)O1
- inhibition [1]: 91.7%
- IC50 (Dihydrofolate reductase): 5.1 µM

SMILES: CC1(C)OC(=O)C(Cc2c[nH]c3ccccc23)C(=O)O1
- inhibition [1]: 36.2%
- inhibition [2]: inactive

SMILES: CC1(C)OC(=O)C(Cc2cn(-c3ccc(F)cc3)nn2)(Cc2cn(Cc3ccc(C#N)cc3)c3ccccc23)C(=O)O1
- inhibition [1]: 91.7%
- IC50 (Dihydrofolate reductase): 6.15 µM

SMILES: CC1(C)OC(=O)C(=Cc2cn(Cc3ccc(C#N)cc3)c3ccccc23)C(=O)O1
- inhibition [1]: 30.2%
- inhibition [2]: inactive

SMILES: N#Cc1ccc(Cn2cc(C=O)c3ccccc32)cc1
- inhibition [1]: 25.2%
- inhibition [2]: inactive

SMILES: Cc1ccccc1-n1cc(CC2(Cc3c[nH]c4ccccc34)C(=O)OC(C)(C)OC2=O)nn1
- inhibition [1]: 90.7%
- IC50 (Dihydrofolate reductase): 19.6 µM

SMILES: CC1(C)OC(=O)C(Cc2cn(-c3ccc(Br)cc3)nn2)(Cc2cn(Cc3ccc(C#N)cc3)c3ccccc23)C(=O)O1
- inhibition [1]: 91.5%
- IC50 (Dihydrofolate reductase): 9.1 µM

SMILES: C#CCC1(Cc2c[nH]c3ccccc23)C(=O)OC(C)(C)OC1=O
- inhibition [1]: 40.2%
- inhibition [2]: inactive

SMILES: COc1ccc(OC(=O)C(Cc2cn(-c3ccc(F)cc3)nn2)Cc2cn(Cc3ccc(C#N)cc3)c3ccccc23)cc1 (configuration not stated)
- inhibition [1]: 90.9%
- IC50 (Dihydrofolate reductase): 16.1 µM

SMILES: CC1(C)OC(=O)C(Cc2cn(-c3ccc(Br)cc3)nn2)(Cc2cn(CCC#N)c3ccccc23)C(=O)O1
- inhibition [1]: 91.6%
- IC50 (Dihydrofolate reductase): 11.3 µM

SMILES: C#CCC1(Cc2cn(CCC#N)c3ccccc23)C(=O)OC(C)(C)OC1=O
- inhibition [1]: 46.2%
- inhibition [2]: inactive

SMILES: CC1(C)OC(=O)C(Cc2cn(-c3ccc(C(F)(F)F)cc3)nn2)(Cc2cn(CCC#N)c3ccccc23)C(=O)O1
- inhibition [1]: 90.5%
- IC50 (Dihydrofolate reductase): 13.9 µM

SMILES: N#CCCn1cc(C=O)c2ccccc21
- inhibition [1]: 24.8%
- inhibition [2]: inactive

SMILES: CC1(C)OC(=O)C(Cc2cn(-c3ccc(C(F)(F)F)cc3)nn2)(Cc2c[nH]c3ccccc23)C(=O)O1
- inhibition [1]: 91.3%
- IC50 (Dihydrofolate reductase): 10.1 µM

SMILES: C#CCC1(Cc2cn(Cc3ccc(C#N)cc3)c3ccccc23)C(=O)OC(C)(C)OC1=O
- inhibition [1]: 41.4%
- inhibition [2]: inactive

SMILES: CC1(C)OC(=O)C(Cc2cn(-c3ccccc3)nn2)(Cc2cn(CCC#N)c3ccccc23)C(=O)O1
- inhibition [1]: 87.3%
- IC50 (Dihydrofolate reductase): 27.6 µM

SMILES: CC1(C)OC(=O)C(Cc2cn(CCC#N)c3ccccc23)C(=O)O1
- inhibition [1]: 38.9%
- inhibition [2]: inactive

SMILES: CC1(C)OC(=O)C(Cc2cn(-c3ccc(F)cc3)nn2)(Cc2cn(CCC#N)c3ccccc23)C(=O)O1
- inhibition [1]: 92.5%
- IC50 (Dihydrofolate reductase): 4.78 µM

SMILES: CC1(C)OC(=O)C(Cc2cn(-c3ccc(C(F)(F)F)cc3)nn2)(Cc2cn(Cc3ccc(C#N)cc3)c3ccccc23)C(=O)O1
- inhibition [1]: 91.8%
- IC50 (Dihydrofolate reductase): 8.71 µM

SMILES: Cc1ccccc1-n1cc(CC2(Cc3cn(Cc4ccc(C#N)cc4)c4ccccc34)C(=O)OC(C)(C)OC2=O)nn1
- inhibition [1]: 90.6%
- IC50 (Dihydrofolate reductase): 14.5 µM

SMILES: CC1(C)OC(=O)C(Cc2cn(-c3ccccc3)nn2)(Cc2cn(Cc3ccc(C#N)cc3)c3ccccc23)C(=O)O1
- inhibition [1]: 86.2%
- IC50 (Dihydrofolate reductase): 30.4 µM

SMILES: CC1(C)OC(=O)C(Cc2cn(-c3ccccc3)nn2)(Cc2c[nH]c3ccccc23)C(=O)O1
- inhibition [1]: 89.7%
- IC50 (Dihydrofolate reductase): 23.8 µM

SMILES: COc1ccc(-n2cc(CC3(Cc4c[nH]c5ccccc45)C(=O)OC(C)(C)OC3=O)nn2)cc1
- inhibition [1]: 90.9%
- IC50 (Dihydrofolate reductase): 4.36 µM

SMILES: CC1(C)OC(=O)C(=Cc2cn(CCC#N)c3ccccc23)C(=O)O1
- inhibition [1]: 35.3%
- inhibition [2]: inactive

SMILES: COc1ccc(-n2cc(CC3(Cc4cn(CCC#N)c5ccccc45)C(=O)OC(C)(C)OC3=O)nn2)cc1
- inhibition [1]: 91.8%
- IC50 (Dihydrofolate reductase): 5.83 µM

SMILES: COc1ccc(-n2cc(CC3(Cc4cn(Cc5ccc(C#N)cc5)c5ccccc45)C(=O)OC(C)(C)OC3=O)nn2)cc1
- inhibition [1]: 92.3%
- IC50 (Dihydrofolate reductase): 3.48 µM

SMILES: COc1ccc(OC(=O)C(Cc2cn(-c3ccc(Br)cc3)nn2)Cc2cn(Cc3ccc(C#N)cc3)c3ccccc23)cc1 (configuration not stated)
- inhibition [1]: 86.7%
- IC50 (Dihydrofolate reductase): 25.3 µM

SMILES: Cc1ccccc1-n1cc(CC2(Cc3cn(CCC#N)c4ccccc34)C(=O)OC(C)(C)OC2=O)nn1
- inhibition [1]: 89.4%
- IC50 (Dihydrofolate reductase): 18.3 µM
